Test results from patent US8178558B2, “Substituted pyridylmethyl bicycliccarboxyamide compounds” (Pfizer Inc., priority 2006, dated 2012).
pIC50: −log10 of the molar value.

biological target: T1, human VR1 receptors (Homo sapiens, UniProt Q8NER1); experiment: Human VR1 antagonist assay (Ca2+ imaging); type: cell-based; details: Ca2+ imaging (fura-2/AM) in cells highly expressing human VR1; agonist stimulation
T1 construct: host or cells: cells that express human VR1 receptors (cell type not specified)
Text: Human VR1 Antagonist Assay
VR1 antagonistic activity can be determined by the Ca^2+ imaging assay using human VR1 highly expressing cells. The cells that highly express human VR1 receptors are obtainable from several different conventional methods. The one standard method is cloning from human Dorsal Root Ganglion (DRG) or kidney according to the methods such as described in the journal article; Nature, 389, pp 816-824, 1997. Alternatively VR1 receptors highly expressing human keratinocytes are also known and published in the journal article (Biochemical and Biophysical Research Communications, 291, pp 124-129, 2002). […] Furthermore, the method to up regulate human VR1 gene, which is usually a silent gene or don't produce detectable level of VR1 receptors, is also available to obtain propriety cells. Such genetic modification method was described in detail; Nat. Biotechnol., 19, pp 440-445, 2001.
The cells that express human VR1 receptors were maintained in culture flask at 37° C. in an environment containing 5% CO2 until use in the assay. The intracellular Ca^2+ imaging assay to determine VR1 antagonistic activities were done by following procedures.
The culture medium was removed from the flask and fura-2/AM fluorescent calcium indicator was added to the flask at a concentration of 5 μM in the medium. The flask was placed in CO2 incubator and incubated for 1 hour. Then the cells expressing the human VR1 receptors were detached from the flask follow by washing with phosphate buffer saline, PBS(−) and re-suspended in assay buffer. The 80 μl of aliquot of cell suspension (3.75×10^5 cells/ml) was added to the assay plate and the cells were spun down by centrifuge (950 rpm, 20° C., 3 minutes).
The compounds of the examples were tested in the Human VR1 antagonist assay described above.
Capsaicin Stimulation Assay
The capsaicin-induced changes in the intracellular calcium concentration were monitored using FDSS 6000 (Hamamatsu Photonics, Japan), a fluorometric imaging system. The cell suspension in Krebs-Ringer HEPES (KRH) buffer (115 mM NaCl, 5.4 mM KCl, 1 mM MgSO4, 1.8 mM CaCl2, 11 mM D-Glucose, 25 mM HEPES, 0.96 mM Na2HPO4, pH 7.3) were pre-incubated with varying concentrations of the test compounds or KRH buffer (buffer control) for 15 minutes at room temperature under the dark condition. Then capsaicin solution, which gives 300 nM in assay mixture, was automatically added to the assay plate by the FDSS 6000.
The Acid-induced changes in the intracellular calcium concentration were monitored using FDSS 6000 (Hamamatsu Photonics, Japan), a fluorometric imaging system. The cell suspension in resting buffer (HBSS supplemented with 10 mM HEPES, pH 7.4) were pre-incubated with varying concentrations of the test compounds or resting buffer (buffer control) for 15 minutes at room temperature under the dark condition. The cells were automatically added the stimulating solution (HBSS supplemented with MES, final assay buffer pH5.8) by the FDSS 6000.
Determination of Antagonist Activity
The monitoring of the changes in the fluorescence signals (λex=340 nm/380 nm, λem=510-520 nm) was initiated at 1 minute prior to the addition of capsaicin solution or acidic buffer and continued for 5 minute.

T1 sequence (Q8NER1 whole entry): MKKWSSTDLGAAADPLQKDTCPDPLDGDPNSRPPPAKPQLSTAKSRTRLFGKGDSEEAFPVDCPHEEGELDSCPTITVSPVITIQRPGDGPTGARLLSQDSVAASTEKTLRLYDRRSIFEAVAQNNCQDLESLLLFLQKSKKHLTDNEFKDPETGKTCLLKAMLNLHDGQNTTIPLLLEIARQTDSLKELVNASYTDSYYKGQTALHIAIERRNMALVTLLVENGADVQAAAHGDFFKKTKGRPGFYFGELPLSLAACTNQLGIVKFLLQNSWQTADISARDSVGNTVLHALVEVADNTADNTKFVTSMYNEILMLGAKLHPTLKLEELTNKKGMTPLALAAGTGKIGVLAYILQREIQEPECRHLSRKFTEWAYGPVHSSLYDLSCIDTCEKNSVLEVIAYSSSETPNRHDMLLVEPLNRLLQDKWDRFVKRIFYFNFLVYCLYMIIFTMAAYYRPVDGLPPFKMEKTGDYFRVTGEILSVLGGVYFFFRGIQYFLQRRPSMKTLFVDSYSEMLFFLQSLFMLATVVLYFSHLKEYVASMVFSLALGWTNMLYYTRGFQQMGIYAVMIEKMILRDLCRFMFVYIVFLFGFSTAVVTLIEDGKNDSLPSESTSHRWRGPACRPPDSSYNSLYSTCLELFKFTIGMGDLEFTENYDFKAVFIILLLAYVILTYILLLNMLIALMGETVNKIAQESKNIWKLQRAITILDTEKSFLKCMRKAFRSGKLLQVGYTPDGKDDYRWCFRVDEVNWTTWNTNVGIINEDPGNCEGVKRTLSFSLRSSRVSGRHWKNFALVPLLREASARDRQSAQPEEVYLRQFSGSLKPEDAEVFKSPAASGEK

`Oc1cc2c(cc1O)CN(C(=S)NCCc1ccc(Cl)cc1)CCC2` [Capsazepine, reference compound] and `Cc1ccc(CNC(=O)c2ccc3cc(C(C)(C)C)ccc3c2)cn1` [Example A1, 6-tert-butyl-N-[(6-methylpyridin-3-yl)methyl]-2-naphthamide] cannot be ordered by pIC50: 6.34 to 6.63 for the first, 6.60 for the second.

`Cc1ccc(C(C)NC(=O)c2ccc3cc(C(C)(C)C)ccc3c2)cn1` (centres unmarked) [Example A2, 6-tert-butyl-N-[1-(6-methylpyridin-3-yl)ethyl]-2-naphthamide] and `Cc1ccc([C@@H](C)NC(=O)c2ccc3cc(C(C)(C)C)ccc3c2)cn1` [Example A3, 6-tert-butyl-N-[(1R)-1-(6-methylpyridin-3-yl)ethyl]-2-naphthamide] are within 0.2 log units of each other in pIC50: 7.17 for the first, 7.02 for the second.

First: Cc1ncc([C@@H](C)NC(=O)c2ccc3cc(C(C)(C)C)ccc3c2)cc1Cl [Example A4, 6-tert-butyl-N-[(1R)-1-(5-chloro-6-methylpyridin-3-yl)ethyl]-2-naphthamide]
Second: Cc1cc([C@@H](C)NC(=O)c2ccc3cc(C(C)(C)C)ccc3c2)ccn1 [Example C3, 6-tert-butyl-N-[(1R)-1-(2-methylpyridin-4-yl)ethyl]-2-naphthamide]
The pIC50 of the first is 0.54 log units lower: 6.57 for the first, 7.11 for the second.

Going from `C[C@@H](NC(=O)c1ccc2cc(C(C)(C)C)ccc2c1)c1ccc(CO)nc1` [Example A5, 6-tert-butyl-N-{(1R)-1-[6-(hydroxymethyl)pyridin-3-yl]ethyl}-2-naphthamide] to `C[C@@H](NC(=O)c1ccc2cc(C(C)(C)C)ccc2c1)c1ccncc1` [Example C1, 6-tert-butyl-N-[(1R)-1-pyridin-4-ylethyl]-2-naphthamide], the pIC50 falls from 6.90 to 6.35 (0.55 log units). The first is the more potent here.

First: CC[C@@H](NC(=O)c1ccc2cc(C(C)(C)C)ccc2c1)c1ccc(C)nc1 [Example A6, (R)-6-tert-butyl-N-(1-(6-methylpyridin-3-yl)propyl)-2-naphthamide]
Second: Cc1ccc([C@@H](C)NC(=O)c2ccc3cc(C(C)(C)C)ccc3n2)cn1 [Example B1, 6-tert-butyl-N-[(1R)-1-(6-methylpyridin-3-yl)ethyl]quinoline-2-carboxamide]
The pIC50 of the first is 0.21 log units higher: 6.58 for the first, 6.37 for the second.

First: COc1cc(CNC(=O)c2ccc3cc(C(C)(C)C)ccc3c2)ccn1 [Example C2, 6-tert-butyl-N-[(2-methoxypyridin-4-yl)methyl]-2-naphthamide]
Second: Cc1cc(CNC(=O)c2ccc3cc(C(C)(C)C)ccc3c2)c(C)cn1 [Example C4, 6-tert-butyl-N-[(2,5-dimethylpyridin-4-yl)methyl]-2-naphthamide]
The pIC50 of the first is 0.80 log units lower: 6.69 for the first, 7.49 for the second.

Going from `Cc1cc(CNC(=O)c2ccc3cc(C(C)(C)C)ccc3n2)ccn1` [Example D1] to `Cc1cc(CNC(=O)c2ccc3cc(C(C)(C)C)ccc3n2)c(C)cn1` [Example D2], the pIC50 rises from 6.64 to 7.07 (0.43 log units).
